Test [1] concerns the target Cy5-labelled Mcl1 (amino acids 171-321) C286S protein (UniProtKB Q07820) (Homo sapiens (Human), UniProt Q07820, C286S). Put plainly: Inhibition of Mcl-1 by the fluorescence quenching assay (Example A, Method B). It counts as binding. The gist of the method: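 Eleven-point compound series incubated 2 h at room temperature with 1 nM Cy5-tagged protein and quencher-labelled PUMA peptide at 10, 20 or 400 nM in HEPES/NaCl/Tween 20, pH 7.4, 5% DMSO. IC50 for 50% fluorescence increase by 4-parameter fit, then Ki derived (complete cKi or estimated eKi).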

Test [2] deals with H929 multiple myeloma tumor line. Put plainly: In vitro cytotoxicity, MTT assay (Example B, Method A). It counts as cell-based. The following applies: Homo sapiens, NCI-H929, 48 h, H929 cells, 48 hours exposure, read-out: C50. As to the method:
The cytotoxicity studies were carried out on the H929 multiple myeloma tumor line.
The cells are distributed onto microplates and exposed to the test compounds for 48 hours. The cell viability is then quantified by a colorimetric assay, the Microculture Tetrazolium Assay (Carmichael et al, Cancer Res. 1987, 47, 939-942).
The results are expressed in C50 which means concentration corresponding to […] of effect/inhibition.

Chain of Cy5-labelled Mcl1 (amino acids 171-321) C286S protein (Q07820 171-321 C286S): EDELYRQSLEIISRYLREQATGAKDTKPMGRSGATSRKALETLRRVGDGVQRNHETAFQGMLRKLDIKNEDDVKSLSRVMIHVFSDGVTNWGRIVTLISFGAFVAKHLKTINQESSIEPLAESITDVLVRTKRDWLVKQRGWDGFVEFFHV

In the case of `C[C@@H](COc1ccnc2c1[C@H](C)CCC2(F)F)C[C@H]1Cc2ccccc2[C@]12CC[C@@](Nc1cccc(Cl)c1)(C(=O)O)CC2` [Example 692, (1r,2′S,4S)-4-(3-chloroanilino)-2′-[(2R)-3-{[(5R)-8,8-difluoro-5-methyl-5,6,7,8-tetrahydroquinolin-4-yl]oxy}-2-methylpropyl]-2′,3′-dihydrospiro[cyclohexane-1,1′-indene]-4-carboxylic acid], in test [1], the Ki turned out to be 1.75 nM. Besides, the IC50 in test [2] came out at 132 nM.

Take `C[C@@H](COc1ccnc2c1C(F)(F)CCC2)C[C@H]1Cc2ccccc2[C@]12CC[C@@](Nc1cccc(Cl)c1)(C(=O)O)CC2` [Example 693, (1r,2′S,4S)-4-(3-chloroanilino)-2′-{(2R)-3-[(5,5-difluoro-5,6,7,8-tetrahydroquinolin-4-yl)oxy]-2-methylpropyl}-2′,3′-dihydrospiro[cyclohexane-1,1′-indene]-4-carboxylic acid]: the inhibitory constant (Ki) in test [1] was found to be 3.7 nM. For the same molecule, in test [2], the IC50 is 527 nM.

As for `C[C@@H](COc1ccnc2c1[C@@H](CC(F)(F)F)CCC2)C[C@H]1Cc2ccccc2[C@]12CC[C@@](Nc1cccc(Cl)c1)(C(=O)O)CC2` [Example 694, (1r,2′S,4S)-4-(3-chloroanilino)-2′-[(2R)-2-methyl-3-{[(5R)-5-(2,2,2-trifluoroethyl)-5,6,7,8-tetrahydroquinolin-4-yl]oxy}propyl]-2′,3′-dihydrospiro[cyclohexane-1,1′-indene]-4-carboxylic acid], the Ki in test [1] came to 100 nM. Further, the IC50 in test [2] was 6290 nM.

Consider `C[C@@H](COc1ccnc2c1[C@H](CC(F)(F)F)CCC2)C[C@H]1Cc2ccccc2[C@]12CC[C@@](Nc1cccc(Cl)c1)(C(=O)O)CC2` [Example 695, (1r,2′S,4S)-4-(3-chloroanilino)-2′-[(2R)-2-methyl-3-{[(5S)-5-(2,2,2-trifluoroethyl)-5,6,7,8-tetrahydroquinolin-4-yl]oxy}propyl]-2′,3′-dihydrospiro[cyclohexane-1,1′-indene]-4-carboxylic acid], for which the Ki in test [1] turned out to be 29.6 nM. The IC50 in test [2] was found to be 3240 nM.

Turning to `CC[C@H]1CC[C@H](F)c2nccc(OC[C@H](C)C[C@H]3Cc4ccccc4[C@]34CC[C@@](Nc3cccc(Cl)c3)(C(=O)O)CC4)c21` [Example 696, (1r,2′S,4S)-4-(3-chloroanilino)-2′-[(2R)-3-{[(5S,8S)-5-ethyl-8-fluoro-5,6,7,8-tetrahydroquinolin-4-yl]oxy}-2-methylpropyl]-2′,3′-dihydrospiro[cyclohexane-1,1′-indene]-4-carboxylic acid], in test [1], the Ki came out at 103 nM. The IC50 in test [2] stood at 5070 nM.

Turning to `CC[C@@H]1CC[C@@H](F)c2nccc(OC[C@H](C)C[C@H]3Cc4ccccc4[C@]34CC[C@@](Nc3cccc(Cl)c3)(C(=O)O)CC4)c21` [Example 697, (1r,2′S,4S)-4-(3-chloroanilino)-2′-[(2R)-3-{[(5R,8R)-5-ethyl-8-fluoro-5,6,7,8-tetrahydroquinolin-4-yl]oxy}-2-methylpropyl]-2′,3′-dihydrospiro[cyclohexane-1,1′-indene]-4-carboxylic acid], the inhibitory constant (Ki) in test [1] turned out to be 8.28 nM. In addition, the IC50 in test [2] was 374 nM.

For `C[C@@H](COc1ccnc2c1[C@@H](C(F)(F)F)CCC2)C[C@H]1Cc2ccccc2[C@]12CC[C@@](Nc1cccc(Cl)c1)(C(=O)O)CC2` [Example 698, (1r,2′S,4S)-4-(3-chloroanilino)-2′-[(2R)-2-methyl-3-{[(5S)-5-(trifluoromethyl)-5,6,7,8-tetrahydroquinolin-4-yl]oxy}propyl]-2′,3′-dihydrospiro[cyclohexane-1,1′-indene]-4-carboxylic acid], the Ki in test [1] stood at 65.6 nM. Moreover, in test [2], the IC50 was 5430 nM.

Turning to `C[C@@H](COc1ccnc2c1[C@H](C(F)(F)F)CCC2)C[C@H]1Cc2ccccc2[C@]12CC[C@@](Nc1cccc(Cl)c1)(C(=O)O)CC2` [Example 699, (1r,2′S,4S)-4-(3-chloroanilino)-2′-[(2R)-2-methyl-3-{[(5R)-5-(trifluoromethyl)-5,6,7,8-tetrahydroquinolin-4-yl]oxy}propyl]-2′,3′-dihydrospiro[cyclohexane-1,1′-indene]-4-carboxylic acid], the Ki in test [1] was 1.15 nM. Also, in test [2], the IC50 is 115 nM.

Regarding `C[C@@H](COc1ccnc2c1[C@H](C)C(F)(F)CC2)C[C@H]1Cc2ccccc2[C@]12CC[C@@](Nc1cccc(Cl)c1)(C(=O)O)CC2` [Example 700, (1r,2′S,4S)-4-(3-chloroanilino)-2′-[(2R)-3-{[(5S)-6,6-difluoro-5-methyl-5,6,7,8-tetrahydroquinolin-4-yl]oxy}-2-methylpropyl]-2′,3′-dihydrospiro[cyclohexane-1,1′-indene]-4-carboxylic acid], the Ki in test [1] was found to be 5.09 nM. Further, in test [2], the IC50 was 330 nM.

With `C[C@@H](COc1ccnc2c1[C@@H](C)C(F)(F)CC2)C[C@H]1Cc2ccccc2[C@]12CC[C@@](Nc1cccc(Cl)c1)(C(=O)O)CC2` [Example 701, (1r,2′S,4S)-4-(3-chloroanilino)-2′-[(2R)-3-{[(5R)-6,6-difluoro-5-methyl-5,6,7,8-tetrahydroquinolin-4-yl]oxy}-2-methylpropyl]-2′,3′-dihydrospiro[cyclohexane-1,1′-indene]-4-carboxylic acid], the Ki in test [1] was determined as 28.5 nM. The IC50 in test [2] came out at 1560 nM.

As for `C[C@@H](COc1ccnc2c1[C@H](C)CCC2)C[C@H]1Cc2ccccc2[C@]12CC[C@@](Nc1ccc(F)c(Cl)c1)(C(=O)O)CC2` [Example 702, (1r,2′S,4S)-4-(3-chloro-4-fluoroanilino)-2′-[(2R)-2-methyl-3-{[(5R)-5-methyl-5,6,7,8-tetrahydroquinolin-4-yl]oxy}propyl]-2′,3′-dihydrospiro[cyclohexane-1,1′-indene]-4-carboxylic acid], the Ki in test [1] amounted to 0.194 nM. Moreover, the IC50 in test [2] was 41.5 nM.

Turning to `C[C@@H](COc1ccnc2c1[C@H](C)CCC2)C[C@@H]1Cc2ccccc2[C@]12CC[C@@](Nc1ccc(F)c(Cl)c1)(C(=O)O)CC2` [Example 703, (1r,2′R,4R)-4-(3-chloro-4-fluoroanilino)-2′-[(2R)-2-methyl-3-{[(5R)-5-methyl-5,6,7,8-tetrahydroquinolin-4-yl]oxy}propyl]-2′,3′-dihydrospiro[cyclohexane-1,1′-indene]-4-carboxylic acid], in test [1], the Ki is 1.27 nM. Besides, the IC50 in test [2] was determined as 169 nM.

Turning to `C[C@@H](COc1ccnc2c1[C@H](C)CCC2)C[C@H]1Cc2ccccc2[C@]12CC[C@@](Nc1cc(F)cc(Cl)c1)(C(=O)O)CC2` [Example 704, (1r,2′S,4S)-4-(3-chloro-5-fluoroanilino)-2′-[(2R)-2-methyl-3-{[(5R)-5-methyl-5,6,7,8-tetrahydroquinolin-4-yl]oxy}propyl]-2′,3′-dihydrospiro[cyclohexane-1,1′-indene]-4-carboxylic acid], the Ki in test [1] stood at 1.49 nM. The IC50 in test [2] was determined as 240 nM.

On to `C[C@@H](COc1ccnc2c1[C@H](C)CCC2)C[C@H]1Cc2ccccc2[C@]12CC[C@@](Nc1cc(Cl)ccc1F)(C(=O)O)CC2` [Example 705, (1r,2′S,4S)-4-(5-chloro-2-fluoroanilino)-2′-[(2R)-2-methyl-3-{[(5R)-5-methyl-5,6,7,8-tetrahydroquinolin-4-yl]oxy}propyl]-2′,3′-dihydrospiro[cyclohexane-1,1′-indene]-4-carboxylic acid], for which the inhibition constant (Ki) in test [1] turned out to be 27.7 nM. Also, in test [2], the IC50 was 2750 nM.

As to `C[C@@H](COc1ccnc2c1[C@H](C)CCC2)C[C@H]1Cc2ccccc2[C@]12CC[C@@](Nc1cccc(Cl)c1F)(C(=O)O)CC2` [Example 706, (1r,2′S,4S)-4-(3-chloro-2-fluoroanilino)-2′-[(2R)-2-methyl-3-{[(5R)-5-methyl-5,6,7,8-tetrahydroquinolin-4-yl]oxy}propyl]-2′,3′-dihydrospiro[cyclohexane-1,1′-indene]-4-carboxylic acid], the Ki in test [1] was 0.901 nM. Besides, in test [2], the IC50 turned out to be 93.9 nM.

In the case of `Cc1ccc(N[C@]2(C(=O)O)CC[C@]3(CC2)c2ccccc2C[C@@H]3C[C@@H](C)COc2ccnc3c2[C@H](C)CCC3)cc1Cl` [Example 709, (1r,2′S,4S)-4-(3-chloro-4-methylanilino)-2′-[(2R)-2-methyl-3-{[(5R)-5-methyl-5,6,7,8-tetrahydroquinolin-4-yl]oxy}propyl]-2′,3′-dihydrospiro[cyclohexane-1,1′-indene]-4-carboxylic acid], in test [1], the Ki worked out at 6.4 nM. In test [2], the IC50 was determined as 1010 nM.

Consider `Cc1cc(Cl)cc(N[C@]2(C(=O)O)CC[C@]3(CC2)c2ccccc2C[C@@H]3C[C@@H](C)COc2ccnc3c2[C@H](C)CCC3)c1` [Example 710, (1r,2′S,4S)-4-(3-chloro-5-methylanilino)-2′-[(2R)-2-methyl-3-{[(5R)-5-methyl-5,6,7,8-tetrahydroquinolin-4-yl]oxy}propyl]-2′,3′-dihydrospiro[cyclohexane-1,1′-indene]-4-carboxylic acid], for which, in test [1], the Ki was 44.1 nM. Besides, the IC50 in test [2] was found to be 3280 nM.

Take `C[C@@H](COc1ccnc2c1[C@H](C)CCC2)C[C@H]1Cc2ccccc2[C@]12CC[C@@](Nc1cccc(Br)c1)(C(=O)O)CC2` [Example 711, (1r,2′S,4S)-4-(3-bromoanilino)-2′-[(2R)-2-methyl-3-{[(5R)-5-methyl-5,6,7,8-tetrahydroquinolin-4-yl]oxy}propyl]-2′,3′-dihydrospiro[cyclohexane-1,1′-indene]-4-carboxylic acid]: the Ki in test [1] turned out to be 0.446 nM. The IC50 in test [2] is 59.8 nM.
